# Read-outs that look alike come from different tables or passages of the source.
# Assays:
# Experiment in all cases: TGFα-shedding assay-based GPCR screening with chimeric Gα subunit proteins
# Type in all cases: cell-based
# 348 GPCRs [1] = molecular target: T1, 348 GPCRs (Homo sapiens, UniProt P30939); settings: 5-HT1F (5-hydroxytryptamine receptor 1F); 10µM, Favipiravir 100μM
# T1 construct: expressed in transfected cells; host or cells: HEK293A
# T1 sequence (P30939 1-366): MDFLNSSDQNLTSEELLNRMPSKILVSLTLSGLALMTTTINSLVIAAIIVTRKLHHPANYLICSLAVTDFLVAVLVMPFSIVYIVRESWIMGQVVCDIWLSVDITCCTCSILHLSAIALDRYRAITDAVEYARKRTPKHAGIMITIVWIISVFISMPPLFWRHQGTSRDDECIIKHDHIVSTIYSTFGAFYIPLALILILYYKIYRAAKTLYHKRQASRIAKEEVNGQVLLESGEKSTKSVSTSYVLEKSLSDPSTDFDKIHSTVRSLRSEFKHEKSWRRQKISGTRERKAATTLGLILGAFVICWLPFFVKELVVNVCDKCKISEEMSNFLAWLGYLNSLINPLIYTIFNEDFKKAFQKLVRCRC
# 348 GPCRs [2] = molecular target: T2, 348 GPCRs (Homo sapiens, UniProt P49286); settings: 10µM, Favipiravir 100μM
# T2 construct: expressed in transfected cells; host or cells: HEK293A
# T2 sequence (P49286 1-362): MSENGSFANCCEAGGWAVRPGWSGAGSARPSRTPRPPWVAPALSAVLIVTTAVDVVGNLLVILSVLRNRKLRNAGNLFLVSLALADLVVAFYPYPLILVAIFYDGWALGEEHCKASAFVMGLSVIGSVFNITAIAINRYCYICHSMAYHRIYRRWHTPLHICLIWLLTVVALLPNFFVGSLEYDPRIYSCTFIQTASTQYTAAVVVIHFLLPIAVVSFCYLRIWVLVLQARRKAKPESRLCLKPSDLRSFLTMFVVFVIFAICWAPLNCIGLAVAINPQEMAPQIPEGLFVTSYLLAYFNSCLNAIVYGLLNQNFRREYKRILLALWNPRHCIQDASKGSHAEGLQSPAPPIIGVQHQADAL
# 348 GPCRs [3] = molecular target: T3, 348 GPCRs (Homo sapiens, UniProt P49683); settings: 10µM, Favipiravir 100μM
# T3 construct: expressed in transfected cells; host or cells: HEK293A
# T3 sequence (P49683 1-370): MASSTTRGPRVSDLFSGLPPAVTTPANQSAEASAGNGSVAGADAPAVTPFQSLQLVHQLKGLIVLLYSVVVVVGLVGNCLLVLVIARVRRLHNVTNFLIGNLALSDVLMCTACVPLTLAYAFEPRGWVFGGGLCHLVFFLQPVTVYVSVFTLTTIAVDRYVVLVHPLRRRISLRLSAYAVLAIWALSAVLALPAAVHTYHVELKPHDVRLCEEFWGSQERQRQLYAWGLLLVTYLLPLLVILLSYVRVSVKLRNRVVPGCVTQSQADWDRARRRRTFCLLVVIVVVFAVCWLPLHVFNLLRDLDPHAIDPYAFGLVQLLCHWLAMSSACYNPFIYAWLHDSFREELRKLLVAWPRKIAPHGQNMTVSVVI
# 348 GPCRs [4] = molecular target: T4, 348 GPCRs (Homo sapiens, UniProt Q14833); settings: 10µM, Favipiravir 100μM
# T4 construct: expressed in transfected cells; host or cells: HEK293A
# 348 GPCRs [5] = molecular target: T5, 348 GPCRs (Homo sapiens, UniProt Q9BZJ8)
# T5 construct: expressed in transfected cells; host or cells: HEK293A
# 348 GPCRs [6] = molecular target: T6, 348 GPCRs (Homo sapiens, UniProt Q9HBX9); settings: RXFP1 (relaxin/insulin-like family peptide receptor 1); 10µM, Favipiravir 100μM
# T6 construct: expressed in transfected cells; host or cells: HEK293A
# T6 sequence (Q9HBX9 1-757): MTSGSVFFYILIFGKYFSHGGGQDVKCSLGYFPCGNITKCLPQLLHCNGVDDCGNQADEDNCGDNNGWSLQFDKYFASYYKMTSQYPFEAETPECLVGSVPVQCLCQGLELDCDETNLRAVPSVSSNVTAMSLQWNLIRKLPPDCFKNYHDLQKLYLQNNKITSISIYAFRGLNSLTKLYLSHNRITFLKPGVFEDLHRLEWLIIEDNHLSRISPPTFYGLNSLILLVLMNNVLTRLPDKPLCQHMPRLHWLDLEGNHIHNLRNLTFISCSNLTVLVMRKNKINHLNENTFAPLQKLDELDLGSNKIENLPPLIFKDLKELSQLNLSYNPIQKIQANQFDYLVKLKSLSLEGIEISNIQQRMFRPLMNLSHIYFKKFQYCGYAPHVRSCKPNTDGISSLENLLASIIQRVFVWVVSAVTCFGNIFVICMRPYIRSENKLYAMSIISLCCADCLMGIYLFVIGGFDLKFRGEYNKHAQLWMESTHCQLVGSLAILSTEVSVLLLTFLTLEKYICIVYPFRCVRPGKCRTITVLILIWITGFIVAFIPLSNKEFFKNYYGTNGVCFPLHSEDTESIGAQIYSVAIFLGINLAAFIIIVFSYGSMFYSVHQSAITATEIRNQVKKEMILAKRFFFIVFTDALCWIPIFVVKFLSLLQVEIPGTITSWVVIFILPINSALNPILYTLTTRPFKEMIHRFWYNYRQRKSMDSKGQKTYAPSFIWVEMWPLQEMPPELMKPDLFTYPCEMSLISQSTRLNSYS
# 348 GPCRs [7] = molecular target: T7, 348 GPCRs (Homo sapiens, UniProt Q9NYW1); settings: 10µM, Favipiravir 100μM
# T7 construct: expressed in transfected cells; host or cells: HEK293A
# T7 sequence (Q9NYW1 1-312): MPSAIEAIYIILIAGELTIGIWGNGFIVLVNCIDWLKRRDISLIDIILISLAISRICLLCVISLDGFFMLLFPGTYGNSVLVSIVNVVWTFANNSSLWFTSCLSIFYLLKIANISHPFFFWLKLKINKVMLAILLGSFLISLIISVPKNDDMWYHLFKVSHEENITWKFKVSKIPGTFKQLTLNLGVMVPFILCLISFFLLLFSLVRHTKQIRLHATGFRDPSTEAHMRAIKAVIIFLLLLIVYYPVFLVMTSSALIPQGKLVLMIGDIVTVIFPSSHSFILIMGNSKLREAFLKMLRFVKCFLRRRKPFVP
# [8] = read-out: % GPCR activation compared to TPA, MT2R (melatonin receptor type 1B)
# [9] = read-out: % GPCR activation compared to TPA, PRLHR (prolactin releasing hormone receptor)
# [10] = read-out: % GPCR activation compared to TPA, GRM4 (glutamate receptor, metabotropic 4)
# [11] = read-out: % GPCR activation compared to TPA, GPCR GPR61 (G protein-coupled receptor 61)
# [12] = read-out: % GPCR activation compared to TPA, TAS2R9 (taste receptor, type 2, member 9)
# [13] = MT2R (melatonin receptor type 1B), read-out: % GPCR activation compared to TPA
# [14] = PRLHR (prolactin releasing hormone receptor), read-out: % GPCR activation compared to TPA
# [15] = GRM4 (glutamate receptor, metabotropic 4), read-out: % GPCR activation compared to TPA
# [16] = GPCR GPR61 (G protein-coupled receptor 61), read-out: % GPCR activation compared to TPA
# [17] = TAS2R9 (taste receptor, type 2, member 9), read-out: % GPCR activation compared to TPA
# T4 sequence (Q14833 33-912): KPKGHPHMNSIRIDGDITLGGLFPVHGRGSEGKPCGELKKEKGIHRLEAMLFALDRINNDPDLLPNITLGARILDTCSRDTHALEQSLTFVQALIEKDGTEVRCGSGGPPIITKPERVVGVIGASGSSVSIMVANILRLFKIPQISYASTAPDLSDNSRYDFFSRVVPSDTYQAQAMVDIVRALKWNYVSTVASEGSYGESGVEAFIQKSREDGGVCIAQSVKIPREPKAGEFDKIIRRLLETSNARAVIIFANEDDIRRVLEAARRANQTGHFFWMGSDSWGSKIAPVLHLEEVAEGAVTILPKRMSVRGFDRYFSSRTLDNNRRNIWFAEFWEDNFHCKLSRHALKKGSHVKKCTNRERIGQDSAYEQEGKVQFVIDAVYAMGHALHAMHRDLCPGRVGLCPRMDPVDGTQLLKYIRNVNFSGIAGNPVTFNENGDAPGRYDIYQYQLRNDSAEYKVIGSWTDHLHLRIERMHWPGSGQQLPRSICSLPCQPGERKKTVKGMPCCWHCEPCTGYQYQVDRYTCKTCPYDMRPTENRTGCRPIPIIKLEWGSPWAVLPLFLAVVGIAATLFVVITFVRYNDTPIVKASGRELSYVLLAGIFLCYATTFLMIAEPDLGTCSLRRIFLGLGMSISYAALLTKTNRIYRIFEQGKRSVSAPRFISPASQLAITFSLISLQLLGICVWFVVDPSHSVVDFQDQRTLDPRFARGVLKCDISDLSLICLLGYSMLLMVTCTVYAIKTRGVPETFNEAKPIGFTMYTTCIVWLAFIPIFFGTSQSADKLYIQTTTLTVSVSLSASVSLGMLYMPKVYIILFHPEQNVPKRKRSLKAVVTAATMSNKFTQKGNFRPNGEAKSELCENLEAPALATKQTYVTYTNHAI
# T5 sequence (Q9BZJ8 whole entry): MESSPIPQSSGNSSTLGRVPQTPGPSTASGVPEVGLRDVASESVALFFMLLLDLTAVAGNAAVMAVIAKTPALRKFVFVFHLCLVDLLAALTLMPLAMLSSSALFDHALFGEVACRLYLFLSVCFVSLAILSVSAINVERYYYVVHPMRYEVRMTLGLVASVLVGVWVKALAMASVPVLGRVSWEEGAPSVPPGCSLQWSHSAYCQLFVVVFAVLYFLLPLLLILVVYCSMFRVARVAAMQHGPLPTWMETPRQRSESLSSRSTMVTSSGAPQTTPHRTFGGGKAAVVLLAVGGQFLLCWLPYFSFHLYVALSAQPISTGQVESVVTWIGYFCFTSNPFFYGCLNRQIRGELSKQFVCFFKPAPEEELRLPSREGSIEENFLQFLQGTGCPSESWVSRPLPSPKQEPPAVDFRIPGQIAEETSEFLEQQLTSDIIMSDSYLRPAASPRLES
structure (smiles),measurement,setting,value
CC(C)OC(=O)[C@H](C)N[P@](=O)(OC[C@H]1O[C@@H](n2ccc(=O)[nH]c2=O)[C@](C)(F)[C@@H]1O)Oc1ccccc1 [sofosbuvir],% GPCR activation compared to TPA,348 GPCRs [1],-0.8157%
same,activation at 10 µM,348 GPCRs [2]; [8],-2.8%
same,activation at 100 µM,348 GPCRs [3]; [9],-8.24%
same,activation at 10 µM,348 GPCRs [4]; [10],2.56%
same,activation at 10 µM,348 GPCRs [5]; [11],-0.929%
same,% GPCR activation compared to TPA,348 GPCRs [6],0.4557%
same,activation at 10 µM,348 GPCRs [7]; [12],-0.791%
CC(C)C(=O)OC[C@H]1O[C@@H](n2ccc(NO)nc2=O)[C@H](O)[C@@H]1O [molnupiravir],% GPCR activation compared to TPA,348 GPCRs [1],0.7188%
same,activation at 10 µM,348 GPCRs [2]; [13],-1.78%
same,activation at 100 µM,348 GPCRs [3]; [14],-3.13%
same,activation at 10 µM,348 GPCRs [4]; [15],-0.478%
same,activation at 10 µM,348 GPCRs [5]; [16],-0.396%
same,% GPCR activation compared to TPA,348 GPCRs [6],-0.9572%
same,activation at 10 µM,348 GPCRs [7]; [17],0.0718%
"NC(=O)c1nc(F)cnc1O [favipiravir, 6-fluoro-3-hydroxy-2-pyrazinecarboxamide]",% GPCR activation compared to TPA,348 GPCRs [1],1.629%
same,activation at 10 µM,348 GPCRs [2]; [13],-4.78%
same,activation at 100 µM,348 GPCRs [3]; [14],1.46%
same,activation at 10 µM,348 GPCRs [4]; [15],1.65%
same,activation at 100 µM,"348 GPCRs [5]; GPCR GPR61 (G protein-coupled receptor 61), 100μM, read-out: % GPCR activation compared to TPA",-3.47%
same,% GPCR activation compared to TPA,348 GPCRs [6],0.2738%
same,activation at 10 µM,348 GPCRs [7]; [17],2.37%
N#C[C@@]1(c2ccc3c(N)ncnn23)O[C@H](CO)[C@@H](O)[C@H]1O [GS441524],% GPCR activation compared to TPA,348 GPCRs [1],0.3563%
same,activation at 10 µM,348 GPCRs [2]; [13],-2.97%
same,activation at 100 µM,348 GPCRs [3]; [14],-1.86%
same,activation at 10 µM,348 GPCRs [4]; [15],1.52%
same,activation at 10 µM,348 GPCRs [5]; [16],-3.94%
same,% GPCR activation compared to TPA,348 GPCRs [6],-1.093%
same,activation at 10 µM,348 GPCRs [7]; [17],0.686%
CCC(CC)COC(=O)[C@H](C)N[P@](=O)(OC[C@H]1O[C@@](C#N)(c2ccc3c(N)ncnn23)[C@H](O)[C@@H]1O)Oc1ccccc1 [remdesivir],% GPCR activation compared to TPA,348 GPCRs [1],-2.148%
same,activation at 10 µM,348 GPCRs [2]; [8],-2.11%
same,activation at 100 µM,348 GPCRs [3]; [9],0.33%
same,activation at 10 µM,348 GPCRs [4]; [10],-0.0103%
same,activation at 10 µM,348 GPCRs [5]; [11],-3.23%
same,% GPCR activation compared to TPA,348 GPCRs [6],-0.5639%
same,activation at 10 µM,348 GPCRs [7]; [12],1.69%
